Values of other authors in PubChem BioAssay AID1259409 (Chemical Carcinogenesis Research Information System (CCRIS), 2018).

Test system: rodent chemically induced tumor inhibition, incidence and multiplicity
Experiment: CCRIS tumor inhibitor studies

SMILES: c1ccc2c(Cc3c[nH]c4ccccc34)c[nH]c2c1
- tumour outcome (control, treated, inhibition, significance) (Carcinogen: BENZO[A]PYRENE, 50-32-8, Dose [Inhibitor]: 0.02 MMOL/G DIET DAILY STARTING AT 63 D OF AGE (8 D PRIOR TO START OF CARCINOGEN TREATMENT) THROUGH 98 D OF AGE FOLLOWED, Route [Inhibitor]: ORAL, Species: MOUSE, Strain/Sex: ICR/FEMALE, Target Tissue: Type of Lesion: FORESTOMACH: TUMOR, Dose [Carcinogen]: 1 MG IN 0.2 ML CORN OIL ADMINISTERED 2/WK FOR 4 WK, Promoter: NONE USED): 93%, 94%, -1%, not significant

SMILES: ClC(Cl)(Cl)Cl
- tumour outcome (control, treated, inhibition, significance) (Carcinogen: 1,2-DIMETHYLHYDRAZINE, 540-73-8, Dose [Inhibitor]: 0, 1.5 ML/KG BW IN CORN OIL ADMINISTERED 2 HR PRIOR TO EACH CARCINOGEN DOSE (STUDY DURATION: 8 MO), Route [Inhibitor]: GAVAGE, Species: RAT, Strain/Sex: BD6/MALE, Target Tissue: Type of Lesion: INTESTINE: TUMOR, Dose [Carcinogen]: 20 MG/KG BW 1/WK FOR 20 WK, Promoter: NONE USED): 100%, 0%, 100%, not calculated

SMILES: COc1c(N2C[C@@H]3CCCN[C@@H]3C2)c(F)cc2c(=O)c(C(=O)O)cn(C3CC3)c12
- outcome (Carcinogen: N-BUTYL-N-(4-HYDROXYBUTYL)NITROSAMINE, 3817-11-6, Dose [Inhibitor]: 0, 500 MG/KG BW/D FOR 24 WK BEGINNING 14 WK POST CARCINOGEN FIRST DOSE (STUDY DURATION: 38 WK), Route [Inhibitor]: ORAL, Species: RAT, Strain/Sex: WISTAR/MALE, FEMALE, Target Tissue: Type of Lesion: LIVER: TUMOR, Dose [Carcinogen]: 0.02% IN DRINKING WATER FOR FIRST 9 WK): 0%, 1/18 (6%), -100%, not significant
- tumour outcome (control, treated, inhibition, significance) (Carcinogen: N-BUTYL-N-(4-HYDROXYBUTYL)NITROSAMINE, 3817-11-6, Dose [Inhibitor]: 0, 500 MG/KG BW/D FOR 24 WK BEGINNING 14 WK POST CARCINOGEN FIRST DOSE (STUDY DURATION: 38 WK), Route [Inhibitor]: ORAL, Species: RAT, Strain/Sex: WISTAR/MALE, FEMALE, Target Tissue: Type of Lesion: URINARY BLADDER: TUMOR, Dose [Carcinogen]: 0.02% IN DRINKING WATER FOR FIRST 9 WK): 13/18 (72%), 10/18 (56%), 22%, not significant
- tumour outcome (control, treated, inhibition, significance) (Carcinogen: N-ETHYL-N-NITROSOUREA, 759-73-9, Dose [Inhibitor]: 0, 500 MG/KG BW/D FOR 24 WK BEGINNING 14 WK POST CARCINOGEN FIRST DOSE (STUDY DURATION: 38 WK), Route [Inhibitor]: ORAL, Species: RAT, Strain/Sex: WISTAR/MALE, FEMALE, Target Tissue: Type of Lesion: AUDITORY SEBACEOUS GLAND: TUMOR, Dose [Carcinogen]: 20 MG/KG BW 1/WK FOR FIRST 10 WK): 9/26 (35%), 4/26 (15%), 57%, not significant
- tumour outcome (control, treated, inhibition, significance) (Carcinogen: N-ETHYL-N-NITROSOUREA, 759-73-9, Dose [Inhibitor]: 0, 500 MG/KG BW/D FOR 24 WK BEGINNING 14 WK POST CARCINOGEN FIRST DOSE (STUDY DURATION: 38 WK), Route [Inhibitor]: ORAL, Species: RAT, Strain/Sex: WISTAR/MALE, FEMALE, Target Tissue: Type of Lesion: HEART: TUMOR, Dose [Carcinogen]: 20 MG/KG BW 1/WK FOR FIRST 10 WK): 1/26 (4%), 0%, 100%, not significant
- tumour outcome (control, treated, inhibition, significance) (Carcinogen: N-ETHYL-N-NITROSOUREA, 759-73-9, Dose [Inhibitor]: 0, 500 MG/KG BW/D FOR 24 WK BEGINNING 14 WK POST CARCINOGEN FIRST DOSE (STUDY DURATION: 38 WK), Route [Inhibitor]: ORAL, Species: RAT, Strain/Sex: WISTAR/MALE, FEMALE, Target Tissue: Type of Lesion: HEMATOLYMPHORETICULAR: TUMOR, Dose [Carcinogen]: 20 MG/KG BW 1/WK FOR FIRST 10 WK): 15/26 (58%), 13/26 (50%), 14%, not significant
- tumour outcome (control, treated, inhibition, significance) (Carcinogen: N-ETHYL-N-NITROSOUREA, 759-73-9, Dose [Inhibitor]: 0, 500 MG/KG BW/D FOR 24 WK BEGINNING 14 WK POST CARCINOGEN FIRST DOSE (STUDY DURATION: 38 WK), Route [Inhibitor]: ORAL, Species: RAT, Strain/Sex: WISTAR/MALE, FEMALE, Target Tissue: Type of Lesion: LARGE INTESTINE: TUMOR, Dose [Carcinogen]: 20 MG/KG BW 1/WK FOR FIRST 10 WK): 9/26 (35%), 7/26 (27%), 23%, not significant
- outcome (Carcinogen: N-ETHYL-N-NITROSOUREA, 759-73-9, Dose [Inhibitor]: 0, 500 MG/KG BW/D FOR 24 WK BEGINNING 14 WK POST CARCINOGEN FIRST DOSE (STUDY DURATION: 38 WK), Route [Inhibitor]: ORAL, Species: RAT, Strain/Sex: WISTAR/MALE, FEMALE, Target Tissue: Type of Lesion: LIVER: TUMOR, Dose [Carcinogen]: 20 MG/KG BW 1/WK FOR FIRST 10 WK): 0%, 0%, 0%, not significant
- tumour outcome (control, treated, inhibition, significance) (Carcinogen: N-ETHYL-N-NITROSOUREA, 759-73-9, Dose [Inhibitor]: 0, 500 MG/KG BW/D FOR 24 WK BEGINNING 14 WK POST CARCINOGEN FIRST DOSE (STUDY DURATION: 38 WK), Route [Inhibitor]: ORAL, Species: RAT, Strain/Sex: WISTAR/MALE, FEMALE, Target Tissue: Type of Lesion: MAMMARY GLAND: TUMOR, Dose [Carcinogen]: 20 MG/KG BW 1/WK FOR FIRST 10 WK): 5/26 (19%), 2/26 (8%), 58%, not significant
- outcome (Carcinogen: N-ETHYL-N-NITROSOUREA, 759-73-9, Dose [Inhibitor]: 0, 500 MG/KG BW/D FOR 24 WK BEGINNING 14 WK POST CARCINOGEN FIRST DOSE (STUDY DURATION: 38 WK), Route [Inhibitor]: ORAL, Species: RAT, Strain/Sex: WISTAR/MALE, FEMALE, Target Tissue: Type of Lesion: MESENTERY: TUMOR, Dose [Carcinogen]: 20 MG/KG BW 1/WK FOR FIRST 10 WK): 0%, 1/26 (4%), -100%, not significant
- outcome (Carcinogen: N-ETHYL-N-NITROSOUREA, 759-73-9, Dose [Inhibitor]: 0, 500 MG/KG BW/D FOR 24 WK BEGINNING 14 WK POST CARCINOGEN FIRST DOSE (STUDY DURATION: 38 WK), Route [Inhibitor]: ORAL, Species: RAT, Strain/Sex: WISTAR/MALE, FEMALE, Target Tissue: Type of Lesion: NASAL CAVITY: TUMOR, Dose [Carcinogen]: 20 MG/KG BW 1/WK FOR FIRST 10 WK): 0%, 0%, 0%, not significant
- outcome (Carcinogen: N-ETHYL-N-NITROSOUREA, 759-73-9, Dose [Inhibitor]: 0, 500 MG/KG BW/D FOR 24 WK BEGINNING 14 WK POST CARCINOGEN FIRST DOSE (STUDY DURATION: 38 WK), Route [Inhibitor]: ORAL, Species: RAT, Strain/Sex: WISTAR/MALE, FEMALE, Target Tissue: Type of Lesion: PANCREAS: TUMOR, Dose [Carcinogen]: 20 MG/KG BW 1/WK FOR FIRST 10 WK): 0%, 0%, 0%, not significant
- tumour outcome (control, treated, inhibition, significance) (Carcinogen: N-ETHYL-N-NITROSOUREA, 759-73-9, Dose [Inhibitor]: 0, 500 MG/KG BW/D FOR 24 WK BEGINNING 14 WK POST CARCINOGEN FIRST DOSE (STUDY DURATION: 38 WK), Route [Inhibitor]: ORAL, Species: RAT, Strain/Sex: WISTAR/MALE, FEMALE, Target Tissue: Type of Lesion: SEMINAL VESICLES: TUMOR, Dose [Carcinogen]: 20 MG/KG BW 1/WK FOR FIRST 10 WK): 1/26 (4%), 0%, 100%, not significant
- tumour outcome (control, treated, inhibition, significance) (Carcinogen: N-ETHYL-N-NITROSOUREA, 759-73-9, Dose [Inhibitor]: 0, 500 MG/KG BW/D FOR 24 WK BEGINNING 14 WK POST CARCINOGEN FIRST DOSE (STUDY DURATION: 38 WK), Route [Inhibitor]: ORAL, Species: RAT, Strain/Sex: WISTAR/MALE, FEMALE, Target Tissue: Type of Lesion: SKIN: TUMOR, Dose [Carcinogen]: 20 MG/KG BW 1/WK FOR FIRST 10 WK): 9/26 (35%), 10/26 (39%), -11%, not significant
- outcome (Carcinogen: N-ETHYL-N-NITROSOUREA, 759-73-9, Dose [Inhibitor]: 0, 500 MG/KG BW/D FOR 24 WK BEGINNING 14 WK POST CARCINOGEN FIRST DOSE (STUDY DURATION: 38 WK), Route [Inhibitor]: ORAL, Species: RAT, Strain/Sex: WISTAR/MALE, FEMALE, Target Tissue: Type of Lesion: SUBCUTIS: TUMOR, Dose [Carcinogen]: 20 MG/KG BW 1/WK FOR FIRST 10 WK): 0%, 0%, 0%, not significant
